The source made the active and inactive calls. The calls are words filed in the database; no cut-off is given here.
Columns and labels:
[1] = system: Rattus norvegicus; assay: Analgesic activity in po dosed Sprague-Dawley rat after 15 to 90 mins by tail flick test; format: functional
[2] = system: Mus musculus; assay: Analgesic activity in po dosed mouse assessed as inhibition of acetic acid-induced writhing administered 30 mins prior to acetic acid challenge measured after 5 mins for 20 mins; format: functional
[3] = system: Rattus norvegicus; assay: Antipsychotic activity in rat assessed as reduction of methamphetamine-induced hyperactivity at 5 mg/kg, po administered prior to methamphetamine challenge relative to vehicle-treated control; format: functional; design: scale not given: the % may be the effect or the level left
[4] = system: Mus musculus; assay: Antianxiety activity in albino BALB/cJ mouse assessed as reduction in footshock-induced fighting behavior at 5 mg/kg, po after 30 to 90 mins; format: functional; design: scale not given: the % may be the effect or the level left
[5] = Acute toxicity in po dosed mouse; format: organism-based; details: in vivo
[6] = system: Mus musculus; assay: Analgesic activity in mouse assessed as inhibition of acetic acid-induced writhing at 10 mg/kg, po administered 30 mins prior to acetic acid challenge measured after 5 mins for 20 mins; format: functional
[7] = organism: Rattus norvegicus; assay: animal or person; format: functional; details: Charles River, route oral
Description: Antidiarrheal activity in Charles River rat assessed as inhibition of castor oil-induced diarrhea by measuring protected animals at 0.5 mg/kg, po administered 1 hr prior to castor oil challenge measured after 1 hr relative to vehicle-treated control

[8] = system: Rattus norvegicus; assay: Antianxiety activity in Long-Evans rat assessed as reduction in motor activity at 5 mg/kg, po after 2 hrs relative to vehicle-treated control; format: functional; design: scale not given: the % may be the effect or the level left
[9] = system: Rattus norvegicus; assay: Antihypertensive activity in spontaneously hypertensive rat model assessed as reduction in blood pressure at 1 mg/kg, po after 3 hrs; format: functional; design: scale not given: the % may be the effect or the level left
[10] = system: Rattus norvegicus; assay: Antihypertensive activity in spontaneously hypertensive rat model assessed as reduction in blood pressure at 1 mg/kg, po after 24 hrs; format: functional; design: scale not given: the % may be the effect or the level left
[11] = system: Rattus norvegicus; assay: Antihypertensive activity in spontaneously hypertensive rat model assessed as reduction in blood pressure at 3 mg/kg, po after 3 hrs; format: functional; design: scale not given: the % may be the effect or the level left
[12] = system: Rattus norvegicus; assay: Antihypertensive activity in spontaneously hypertensive rat model assessed as reduction in blood pressure at 3 mg/kg, po after 24 hrs; format: functional; design: scale not given: the % may be the effect or the level left
[13] = system: Rattus norvegicus; assay: Antianxiety activity in Long-Evans rat assessed as reduction in motor activity at 1 mg/kg, po after 2 hrs relative to vehicle-treated control; format: functional; design: scale not given: the % may be the effect or the level left
[14] = system: Rattus norvegicus; assay: Antipsychotic activity in rat assessed as reduction of methamphetamine-induced hyperactivity at 10 mg/kg, po administered prior to methamphetamine challenge relative to vehicle-treated control; format: functional; design: scale not given: the % may be the effect or the level left
[15] = system: Rattus norvegicus; assay: Antipsychotic activity in rat assessed as reduction of methamphetamine-induced hyperactivity at 2 mg/kg, po administered prior to methamphetamine challenge relative to vehicle-treated control; format: functional; design: scale not given: the % may be the effect or the level left
[16] = system: Felis catus; assay: Hypnotic activity in cat assessed as increase in non-REM sleep time at 0.5 mg/kg administered orally through diet measured for 12 hrs by EEG analysis; format: functional; details: route oral
[17] = system: Felis catus; assay: Hypnotic activity in cat assessed as increase in total sleep time at 0.5 mg/kg administered orally through diet measured for 12 hrs by EEG analysis; format: functional; details: route oral
[18] = system: Mus musculus; assay: Antianxiety activity in albino BALB/cJ mouse assessed as reduction in footshock-induced fighting behavior at 10 mg/kg, po after 30 to 90 mins; format: functional; design: scale not given: the % may be the effect or the level left
[19] = system: Rattus norvegicus; assay: Antianxiety activity in Long-Evans rat assessed as reduction in motor activity at 10 mg/kg, po after 2 hrs relative to vehicle-treated control; format: functional; design: scale not given: the % may be the effect or the level left

## CCCCCc1cc(O)c2c(c1)OC(C)(C)C1=C2CN(Cc2ccccc2)CC1
[1]
  Activity: inactive
[2]
  inhibition: inactive

## CC(CCc1ccc(F)cc1)C(C)c1cc(O)c2c(c1)OC(C)(C)C1=C2CNCC1 (configuration not stated)
[1]
  Activity: inactive
[2]
  inhibition: inactive

## CC(CCCc1ccc(F)cc1)c1cc(O)c2c3c(c(=O)oc2c1)CCC3 (configuration not stated)
[1]
  Activity: inactive
[2]
  inhibition: inactive

## CC1CCc2c(c3c(O)cc(C(C)CCc4ccc(F)cc4)cc3oc2=O)C1 (configuration not stated)
[1]
  Activity: inactive
[2]
  inhibition: inactive

## CC(CCCc1ccc(F)cc1)c1cc(O)c2c(c1)OC(C)(C)C1=C2CNCC1 (configuration not stated)
[1]
  Activity: inactive
[2]
  inhibition: inactive

## Cc1ccc(CCCC(C)c2cc(O)c3c(c2)OC(C)(C)C2=C3CN(Cc3ccccc3)CC2)cc1 (configuration not stated)
[1]
  Activity: inactive
[2]
  inhibition: inactive

## CC1CCc2c(c3c(O)cc(CCCCCc4ccc(F)cc4)cc3oc2=O)C1 (configuration not stated)
[1]
  Activity: inactive
[2]
  inhibition: inactive

## CC(CCc1ccc(F)cc1)C(C)c1cc(O)c2c(c1)OC(C)(C)C1=C2CN(Cc2ccccc2)CC1 (configuration not stated)
[1]
  Activity: inactive
[2]
  inhibition: inactive

## C#CCN1CCC2=C(C1)c1c(O)cc(C(C)C(C)CCCc3ccc(F)cc3)cc1OC2(C)C (configuration not stated)
[3]
  Activity: 0%
[4]
  Activity: 23%
[5]
  LD50: ≥ 1000 mg/kg
[6]
  inhibition in vivo at 10 mg/kg: 35%
[7]
  inhibition in vivo at 0.5 mg/kg: 0%
[8]
  Activity: 46%

## CC(CCCc1ccc(F)cc1)c1cc(O)c2c3c(c(=O)oc2c1)N1CCC3CC1 (configuration not stated)
[1]
  Activity: inactive
[2]
  inhibition: inactive

## CC(CCCCc1ccc(F)cc1)c1cc(O)c2c(c1)OC(C)(C)C1=C2CNCC1 (configuration not stated)
[1]
  Activity: inactive
[2]
  inhibition: inactive

## CC1CCc2c(c3c(O)cc(C(C)C(C)CCCc4ccc(F)cc4)cc3oc2=O)C1 (configuration not stated)
[1]
  Activity: inactive
[2]
  inhibition: inactive

## CC(CCc1ccc(F)cc1)c1cc(O)c2c(c1)OC(C)(C)C1=C2CN(Cc2ccccc2)CC1 (configuration not stated)
[1]
  Activity: inactive
[2]
  inhibition: inactive

## CC(CCCc1ccc(F)cc1)c1cc(O)c2c3c(c(=O)oc2c1)SCC3C (configuration not stated)
[1]
  Activity: inactive
[2]
  inhibition: inactive

## Cc1ccc(CCCC(C)c2cc(O)c3c4c(c(=O)oc3c2)CCC(C)C4)cc1 (configuration not stated)
[1]
  Activity: inactive
[2]
  inhibition: inactive

## CCCCCc1cc(O)c2c(c1)OC(C)(C)C1=C2CNCC1
[1]
  Activity: inactive
[2]
  inhibition: inactive

## CC(CCc1ccc(F)cc1)c1cc(O)c2c(c1)OC(C)(C)C1=C2CNCC1 (configuration not stated)
[1]
  Activity: inactive
[2]
  inhibition: inactive

## CC1CCC2=C(C1)c1c(O)cc(CCCCCc3ccc(F)cc3)cc1OC2(C)C (configuration not stated)
[9]
  Activity: 6%
[10]
  Activity: 9%
[11]
  Activity: 27%
[3]
  Activity: 39%
[4]
  Activity: 36%
[5]
  LD50: ≥ 1000 mg/kg
[6]
  inhibition in vivo at 10 mg/kg: 41%
[8]
  Activity: 16%
[12]
  Activity: 17%

## CC1CCC2=C(C1)c1c(O)cc(C(C)CCCCc3ccc(F)cc3)cc1OC2(C)C (configuration not stated)
[9]
  Activity: 7%
[10]
  Activity: 4%
[11]
  Activity: 33%
[3]
  Activity: 65%
[4]
  Activity: 4%
[13]
  Activity: 40%
[5]
  LD50: 750 mg/kg
[14]
  Activity: 71%
[7]
  inhibition in vivo at 0.5 mg/kg: 80%
[8]
  Activity: 73%
[2]
  ED50: 20.5 mg/kg
[12]
  Activity: 14%

## CC1CSC2=C1c1c(O)cc(C(C)CCCc3ccc(F)cc3)cc1OC2(C)C (configuration not stated)
[15]
  Activity: 55%
[16]
  Time: 8 min
[17]
  Time: 11 min
[3]
  Activity: 78%
[18]
  Activity: 100%
[5]
  LD50: 500 mg/kg
[8]
  Activity: 85%
[2]
  ED50: 8.4 mg/kg

## CNC1=Nc2ccc(Cl)cc2C(c2ccccc2)=[N+]([O-])C1.Cl [CHLORDIAZEPOXIDE HYDROCHLORIDE]
[18]
  Activity: 53%
[19]
  Activity: 54%
[8]
  Activity: 26%

## CCCCCc1cc(O)c2c3c(c(=O)oc2c1)CCN(Cc1ccccc1)C3
[1]
  Activity: inactive
[2]
  inhibition: inactive

Source: ChEMBL document CHEMBL3272295, “Drugs derived from cannabinoids. 5. delta6a,10a-Tetrahydrocannabinol and heterocyclic analogs containing aromatic side chains” (J Med Chem, 1976)
